Publication PMC9137698, “Development of New Antimycobacterial Sulfonyl Hydrazones and 4-Methyl-1,2,3-thiadiazole-Based Hydrazone Derivatives” (Antibiotics, 2022)
Values after ≈ are worked out from the molar mass of the structure shown. Where two headings read alike, the source gives them in different places.

Experiments:
[1] = tested on: M. tuberculosis strain H37Rv; experiment: EUCAST broth microdilution MIC determination; format: cell-based, Mycobacterium tuberculosis
[2] = tested on: CCL-1 mouse fibroblast cell line; experiment: MTT cytotoxicity assay, CCL-1; format: cell-based; details: for selectivity index SI, CCL-1: ratio of IC50 to MIC; for IC50: Mus musculus
Procedure: (§1) The cytostatic activity of the investigational compounds was determined using a standard MTT-based colorimetric assay for evaluating cell viability. HEK-293 and CCL-1 cells were harvested and seeded (100 µL/well) in 96-well plates at a density of 3 × 10^5. Following a 24 h incubation, the cells were treated with serial dilutions of the tested compounds in the concentration range of 200.0–12.5 µM. Following an exposure time of 72 h, a filter-sterilized MTT substrate solution (5 mg/mL in PBS) was added to each well of the culture plate. A further 1–4 h incubation allowed the formation of purple insoluble precipitates of the formazan dye. The latter was dissolved in an isopropyl alcohol solution containing 5% formic acid for absorbance measurement at 550 nm. The collected absorbance values were blanked against MTT-and isopropanol solution and normalized to the mean value of the untreated control (100% cell viability).
(§2) Semi-logarithmic “dose-response” curves were computed using nonlinear regression in GraphPad Prism® 8.0. The antiproliferative potential of the studied compounds was rated according to the calculated half-maximal inhibitory concentrations (IC50 values).

[3] = tested on: HEK-293 (human embryonic kidney 293) cells; experiment: MTT cytotoxicity assay, HEK-293; format: cell-based; details: for selectivity index SI, HEK-293 / selectivity indices (SI): ratio of IC50 to MIC; for selectivity indices (SI): both cell lines HEK-293 and CCL-1; for IC50: Homo sapiens
Procedure: as §1, §2

[4] = Mycobacterium tuberculosis, H37RV, M. tuberculosis strain H37Rv, lowest concentration without visual growth, read-out: MIC a
[5] = Mycobacterium tuberculosis, H37RV, read-out: MIC a (µM)
[6] = CCL-1, 72 h, read-out: IC50 (µM) b CCL-1
[7] = HEK293, 72 h, read-out: IC50 (µM) c HEK-293
[8] = M. tuberculosis strain H37Rv, lowest concentration without visual growth, read-out: MIC a

In the case of `O=S(=O)(N/N=C/C=C/c1ccccc1)c1ccccc1` [5k, N’-[(1E,2E)-3-phenylprop-2-en-1-ylidene]benzenesulfonohydrazid], the MIC [1, 4] is reported as < 0.1 µM, the “selectivity index SI, CCL-1” value ([2]; as assigned in running text) is reported as 2216 and the “selectivity index SI, HEK-293” value ([3]; as assigned in running text) is reported as 3380. For the same molecule, the “selectivity indices (SI)” value [3] was > 1000.
Molecule `O=S(=O)(N/N=C/c1c[nH]c2ccc(OCc3ccccc3)cc12)c1ccccc1` [5c] has an MIC [1, 5] of 0.343 µM (≈ 0.139 µg/mL), an IC50 [2, 6] of 321 ± 16.2 µM and an IC50 [3, 7] of 32.3 ± 1.5 µM.
In the case of `COc1ccc2c(c1)c(/C=N/NS(=O)(=O)c1ccccc1)cn2C` [5b, N’-[(E)-(5-methoxy-1-methyl-1H-indol-3-yl)methylidene]benzenesulfonohydrazide], the MIC [1, 8] is reported as 0.2027 µM (≈ 0.0696 µg/mL) and the MIC [1, 4] is reported as < 0.4 µM.
Work on `COc1ccc(/C=N/NS(=O)(=O)c2ccccc2)cc1OC` [5j, N’-[(E)-(3,4-dimethoxyphenyl)methylidene]benzenesulfonohydrazide] yielded an MIC [1, 5] of 0.321 µM (≈ 0.103 µg/mL), an IC50 [2, 6] of 83.5 ± 7 µM and an IC50 [3, 7] of 47.4 ± 6.8 µM.
`O=S(=O)(N/N=C/c1ccc(Cl)cc1)c1ccccc1` [5i, N’-[(E)-(4-chlorophenyl)methylidene]benzenesulfonohydrazide] gave an MIC [1, 5] of 0.147 µM (≈ 0.0434 µg/mL), an IC50 [2, 6] of 131 ± 11.4 µM and an IC50 [3, 7] of 100 ± 9.3 µM.
In the case of `Cc1nnsc1C(=O)N/N=C/c1c(Cl)c2ccccc2oc1=O` [3a, N’-[(E)-(4-chloro-2-oxo-2H-1-benzopyran-3-yl)methylidene]-4-methyl-1,2,3-thiadiazole-5-carbohydrazide], the MIC [1, 8] is reported as 0.3914 µM (≈ 0.137 µg/mL) and the MIC [1, 4] is reported as < 0.4 µM.
`O=[N+]([O-])c1ccccc1/C=N/NS(=O)(=O)c1ccccc1` [5f, N’-[(E)-(2-nitrophenyl)methylidene]benzenesulfonohydrazide] showed an MIC [1, 4] of 0.305 µM (≈ 0.0932 µg/mL).
With `NNC(=O)c1ccncc1` [INH, isoniazid, reference compound] the MIC [1, 4] was 0.0343 µM (≈ 0.0047 µg/mL).
With `COc1ccc2c(c1)c(/C=N/NC(=O)c1snnc1C)cn2C` [3b, N’-[(E)-(5-methoxy-1-methyl-1H-indol-3-yl)methylidene]-4-methyl-1,2,3-thiadiazole-5-carbohydrazide] the MIC [1, 8] was 0.3294 µM (≈ 0.108 µg/mL) and the MIC [1, 4] was < 0.4 µM.
With `O=S(=O)(N/N=C/c1c[nH]c2ccc(Cl)cc12)c1ccccc1` [5d, N’-[(E)-(5-chloro-1H-indol-3-yl)methylidene]benzenesulfonohydrazide] the MIC [1, 4] was 0.167 µM (≈ 0.0557 µg/mL).
For `COc1ccc2[nH]cc(/C=N/NS(=O)(=O)c3ccccc3)c2c1` [5e, N’-[(E)-(5-methoxy-1H-indol-3-yl)methylidene]benzenesulfonohydrazide], the MIC [1, 4] was 0.165 µM (≈ 0.0542 µg/mL).
With “N’-[(E)-(3-hydroxy-4-methoxyphenyl)methylidene]benzenesulfonohydrazide [5h]” the MIC [1, 8] was 0.3203 µM.
With `O=[N+]([O-])c1ccc(/C=N/NS(=O)(=O)c2ccccc2)cc1` [5g, N’-[(E)-(4-nitrophenyl)methylidene]benzenesulfonohydrazide] the MIC [1, 4] was < 0.1 µM and the “selectivity indices (SI)” value [3] was > 1000.
With `COc1cc(/C=N/NC(=O)c2snnc2C)ccc1O` [3d, N’-[(E)-(4-hydroxy-3-methoxyphenyl)methylidene]-4-methyl-1,2,3-thiadiazole-5-carbohydrazide] the MIC [1, 4] was < 0.1 µM, the IC50 ([2]; Fibroblast, MTT, as assigned in running text, read-out: IC50, mouse fibroblast cells CCL-1) was 218 µM and the “selectivity index SI, CCL-1” value ([2]; as assigned in running text) was 2979. For the same molecule, the IC50 ([3]; HEK293, MTT, as assigned in running text, read-out: IC50, human embryonic kidney cells HEK-29) was 257 µM and the “selectivity index SI, HEK-293” value ([3]; as assigned in running text) was 3516.
In the case of `Cc1nnsc1C(=O)N/N=C/c1c[nH]c2ccc(OCc3ccccc3)cc12` [3c, N’-((E)-[5-(benzyloxy)-1H-indol-3-yl]methylidene)-4-methyl-1,2,3-thiadiazole-5-carbohydrazide], the “selectivity index SI, CCL-1” value ([2]; as assigned in running text) is reported as 4093 and the “selectivity index SI, HEK-293” value ([3]; as assigned in running text) is reported as 2242.
